What was measured:
[1] = target: T1, Recombinant Human CD39/ENTPD1 Protein (Homo sapiens, UniProt P49961); assay: CD39 activity with varying substrate concentration (phosphate release, Malachite Green), fitted to substrate inhibition model; assay type: biochemical; settings: for Vmax: 0.02 µg/ml enzyme, 5 mM CaCl2, 30 min, room temperature; for kcat: Vmax divided by CD39 concentration; for substrate inhibition at high substrate concentrations: result in words
T1 construct: purchased R&D System (Biotechne) 4397-EN-010
T1 sequence (P49961 38-478 limits assumed): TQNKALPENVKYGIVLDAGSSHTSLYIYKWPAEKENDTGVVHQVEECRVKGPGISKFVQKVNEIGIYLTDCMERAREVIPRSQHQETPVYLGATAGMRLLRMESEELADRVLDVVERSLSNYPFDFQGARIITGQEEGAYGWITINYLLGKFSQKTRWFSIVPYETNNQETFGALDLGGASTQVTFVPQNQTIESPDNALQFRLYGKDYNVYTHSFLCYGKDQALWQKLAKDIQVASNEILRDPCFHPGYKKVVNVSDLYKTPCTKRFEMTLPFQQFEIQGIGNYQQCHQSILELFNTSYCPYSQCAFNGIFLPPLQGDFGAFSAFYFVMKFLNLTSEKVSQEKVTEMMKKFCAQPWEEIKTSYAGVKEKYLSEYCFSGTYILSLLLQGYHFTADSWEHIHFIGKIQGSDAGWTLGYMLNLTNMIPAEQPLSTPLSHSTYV

[2] = target: T1, Recombinant Human CD39/ENTPD1 Protein; design: method as in PMID 23425137; settings: result in words; cited from earlier work
[3] = target: T1, Recombinant Human CD39/ENTPD1 Protein; assay: Inhibition of CD39 activity by reaction products (nucleoside monophosphates), Malachite Green phosphate assay; assay type: biochemical
[4] = compound as substrate, Haldane substrate inhibition model
[5] = substrate inhibition constant, compound as substrate, Haldane substrate inhibition model

CSc1nc(N)c2ncn([C@@H]3O[C@H](COP(=O)(O)OP(=O)(O)O)[C@@H](O)[C@H]3O)c2n1 [2-MeS-ADP, 2-methylthio-ADP]
Km [1, 4]: 9.36 µM
Vmax [1, 4]: 0.021 nmol/min
kcat ([1]; compound as substrate): 17.8 s⁻¹
substrate inhibition at high substrate concentrations ([1]; compound as substrate): no substrate inhibition

CSc1nc(N)c2ncn([C@@H]3O[C@H](COP(=O)(O)OP(=O)(O)OP(=O)(O)O)[C@@H](O)[C@H]3O)c2n1 [2-MeS-ATP]
Km [1, 4]: 5.37 µM
Vmax [1, 4]: 0.018 nmol/min
kcat ([1]; compound as substrate): 15.3 s⁻¹
Ki [1, 5]: 1820 µM

CCCCSc1nc2c(N)ncnc2n1[C@@H]1O[C@H](COP(=O)(O)OP(=O)(O)O)[C@@H](O)[C@H]1O [8-BuS-ADP]
hydrolysis by CD39 [2]: resistant to hydrolysis by CD39

CCCCSc1nc2c(N)ncnc2n1C1OC(COP(=O)(O)OP(=O)(O)OP(=O)(O)O)C(O)C1O (centres unmarked) [8-butylthio (BuS)-ATP]
hydrolysis by CD39 [2]: resistant to hydrolysis by CD39

Nc1ncnc2c1ncn2[C@@H]1O[C@H](COP(=O)(O)OP(=O)(O)O)[C@@H](O)[C@H]1O [ADP]
Km [1, 4]: 5.71 µM
Vmax [1, 4]: 0.021 nmol/min
kcat ([1]; compound as substrate): 17.8 s⁻¹
Ki [1, 5]: 358 µM

Nc1ncnc2c1ncn2[C@@H]1O[C@H](COP(=O)(O)OP(=O)(O)OP(=O)(O)O)[C@@H](O)[C@H]1O [ATP]
Km [1, 4]: 4.01 µM
Vmax [1, 4]: 0.020 nmol/min
kcat ([1]; compound as substrate): 17.0 s⁻¹
Ki [1, 5]: 818 µM

Nc1nc2c(ncn2[C@@H]2O[C@H](COP(=O)(O)OP(=O)(O)O)[C@@H](O)[C@H]2O)c(=O)[nH]1 [GDP]
Km [1, 4]: 26.6 µM
Vmax [1, 4]: 0.022 nmol/min
kcat ([1]; compound as substrate): 18.7 s⁻¹
Ki ([1]; substrate inhibition constant as stated in text): > 1000 µM

Nc1nc2c(ncn2[C@@H]2O[C@H](COP(=O)(O)O)[C@@H](O)[C@H]2O)c(=O)[nH]1 [GMP]
IC50 ([3]; 24 μM GTP as substrate): ~350 µM

Nc1nc2c(ncn2[C@@H]2O[C@H](COP(=O)(O)OP(=O)(O)OP(=O)(O)O)[C@@H](O)[C@H]2O)c(=O)[nH]1 [GTP]
Km [1, 4]: 20.6 µM
Vmax [1, 4]: 0.021 nmol/min
kcat ([1]; compound as substrate): 17.8 s⁻¹
substrate inhibition at high substrate concentrations ([1]; compound as substrate): Substrate inhibition was seen
Ki [1, 5]: 680 µM

O=c1ccn([C@@H]2O[C@H](COP(=O)(O)OP(=O)(O)O)[C@@H](O)[C@H]2O)c(=O)[nH]1 [UDP]
Km [1, 4]: 13.3 µM
Vmax [1, 4]: 0.025 nmol/min
kcat ([1]; compound as substrate): 21.2 s⁻¹
substrate inhibition at high substrate concentrations ([1]; compound as substrate): almost no substrate inhibition

O=c1ccn([C@@H]2O[C@H](COP(=O)(O)O)[C@@H](O)[C@H]2O)c(=O)[nH]1 [UMP]
IC50 ([3]; 24 μM UTP as substrate): ~165 µM

O=c1ccn([C@@H]2O[C@H](COP(=O)(O)OP(=O)(O)OP(=O)(O)O)[C@@H](O)[C@H]2O)c(=O)[nH]1 [UTP]
Km [1, 4]: 9.38 µM
Vmax [1, 4]: 0.024 nmol/min
kcat ([1]; compound as substrate): 20.4 s⁻¹
substrate inhibition at high substrate concentrations ([1]; compound as substrate): weak substrate inhibition
Ki [1, 5]: 1960 µM

From PMC10238538, “Human soluble CD39 displays substrate inhibition in a substrate-specific manner” (Scientific Reports, 2023)
